Assay [1] concerns Hep3B cell. The experiment in a line: EPO Elisa Assay in Hep3B cells. The class given is cell-based. The note with it: Homo sapiens, 24 h at 37° C.
For assay [2], the target named is PHD2 (Homo sapiens (Human), UniProt Q9GZT9). Kind of assay: PHD2 Enzymatic Assay (AlphaScreen). Format: biochemical. The note with it: 30 min preincubation at RT. In general terms: Alpha assays give light when donor and acceptor beads are brought close together.
PHD2, sequence (Q9GZT9 whole entry): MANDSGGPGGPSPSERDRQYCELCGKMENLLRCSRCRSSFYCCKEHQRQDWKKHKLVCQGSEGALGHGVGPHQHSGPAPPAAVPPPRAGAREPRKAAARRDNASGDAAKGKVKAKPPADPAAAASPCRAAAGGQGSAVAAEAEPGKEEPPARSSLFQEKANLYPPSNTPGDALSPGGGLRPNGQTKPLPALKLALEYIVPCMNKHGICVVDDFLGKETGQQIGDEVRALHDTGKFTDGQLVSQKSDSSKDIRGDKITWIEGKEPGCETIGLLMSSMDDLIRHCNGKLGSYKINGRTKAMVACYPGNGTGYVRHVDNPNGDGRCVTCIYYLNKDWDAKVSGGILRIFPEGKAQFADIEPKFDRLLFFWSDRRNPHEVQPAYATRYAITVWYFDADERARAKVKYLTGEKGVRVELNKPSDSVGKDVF

In assay [1], `N#Cc1ccc(CNC(=O)c2ncc3nc(N4CCC5(COC5)C4)ccc3c2O)c(Cl)c1` [compound 8] came in with a 50% effective concentration (EC50) of 2.5 to 5 µM. Moreover, the IC50 in assay [2] was 0.005 to 0.02 µM.

`N#Cc1ccc(CNC(=O)c2ncc3nc(N4CCC5(COC5)C4)ccc3c2O)cn1` [compound 25] gave an EC50 in assay [1] of under 2.5 µM. The same compound had an IC50 in assay [2] of under 0.005 µM.

With `N#Cc1ccc(CNC(=O)c2ncc3nc(N4CC5CC4CO5)ccc3c2O)cn1` (centres unmarked) [compound 30], the EC50 in assay [1] was 2.5 to 5 µM.

Compound `N#Cc1ccc(CNC(=O)c2ncc3nc(N4C[C@H]5C[C@@H]4CO5)ccc3c2O)cn1` [compound 43] registered an EC50 in assay [1] of 2.5 to 5 µM. Besides, in assay [2], the IC50 is under 0.005 µM.

`N#Cc1ccc(CNC(=O)c2ncc3nc(N4C[C@@H]5C[C@H]4CO5)ccc3c2O)cn1` [compound 44]: the EC50 in assay [1] was in the range of 2.5 to 5 µM. For the same compound, in assay [2], the IC50 is under 0.005 µM.

On to `CN1C[C@@H]2C[C@H]1CN2c1ccc2c(O)c(C(=O)NCc3ccc(C#N)cc3Cl)ncc2n1` [compound 58], for which, in assay [1], the EC50 lay in the range of 10 to 100 µM. In addition, the concentration for half-maximal inhibition (IC50) in assay [2] was under 0.005 µM.

`CN1CCC2(CCN(c3ccc4c(O)c(C(=O)NCc5ccc(C#N)nc5)ncc4n3)CC2)C1=O` [compound 67] had a concentration giving a half-maximal response (EC50) in assay [1] of 5 to 7.5 µM. Further, in assay [2], the IC50 was under 0.005 µM.

As to `N#Cc1ccc(CNC(=O)c2ncc3nc(N4C[C@@H]5C[C@H]4CN5C4CC4)ccc3c2O)c(Cl)c1` [compound 68], the concentration for a half-maximal effect (EC50) in assay [1] was under 2.5 µM. The IC50 in assay [2] was 0.005 to 0.02 µM.

`N#Cc1ccc(CNC(=O)c2ncc3nc(N4C[C@H]5C[C@@H]4CN5C4CC4)ccc3c2O)c(Cl)c1` [compound 69]: in assay [1], the EC50 fell in the range of 2.5 to 5 µM. The compound also had an IC50 in assay [2] of 0.005 to 0.02 µM.

Take `N#Cc1ccc(CNC(=O)c2ncc3nc(N4C[C@@H]5C[C@H]4CN5C4CC4)ccc3c2O)cn1` [compound 80]: the EC50 in assay [1] is under 2.5 µM. Also, in assay [2], the IC50 is under 0.005 µM.

Compound `CC(C)(C)OC(=O)N1CC2(C1)CN(c1ccc3c(O)c(C(=O)NCc4ccc(C#N)nc4)ncc3n1)C2` [compound 91] returned an EC50 in assay [1] of under 2.5 µM. The compound further yielded an IC50 in assay [2] of under 0.005 µM.

`CC(C)(C)OC(=O)N1C[C@@H]2C[C@H]1CN2c1ccc2c(O)c(C(=O)NCc3ccc(C#N)nc3)ncc2n1` [compound 116] gave an EC50 in assay [1] of 10 to 100 µM. In assay [2], this compound registered an IC50 of under 0.005 µM.

Consider `CC(C)(C)OC(=O)N1C[C@@H]2CN(c3ccc4c(O)c(C(=O)NCc5ccc(C#N)nc5)ncc4n3)C[C@@H]2C1` [compound 117], for which the EC50 in assay [1] lay within 2.5 to 5 µM. The compound also came in with a half-inhibitory concentration (IC50) in assay [2] of under 0.005 µM.

`CC(C)(C)OC(=O)N1CCOC2(C1)CN(c1ccc3c(O)c(C(=O)NCc4ccc(C#N)nc4)ncc3n1)C2` [compound 118] came in with an EC50 in assay [1] of 2.5 to 5 µM. Further, the IC50 in assay [2] was under 0.005 µM.

The compound `CC(C)(C)OC(=O)N[C@@H]1CN(c2ccc3c(O)c(C(=O)NCc4ccc(C#N)nc4)ncc3n2)CC12CC2` [compound 145] yielded an EC50 in assay [1] of 10 to 100 µM. For the same compound, in assay [2], the IC50 is under 0.005 µM.

The term EC50 denotes the concentration giving half of the maximal effect. A high value points to weaker potency. The IC50 is the concentration that inhibits the measured activity by half.

The values above are taken from patent publication US11780854B2, “Prolyl hydroxylase domain-containing protein (PHD) inhibitors and uses thereof” (Insilico Medicine IP Limited, priority 2021, dated 2023).
